Reference: PubChem BioAssay (NCI)
“And” between values parts separate entries of the source, which are not always exact repeats. Equal entries are not always repeated.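 Cells were grown in 96-well plates and exposed to each compound for 48 hours at five concentrations; endpoints were interpolated linearly between bracketing concentrations, or set to the highest concentration if not reached. At the GI50, growth is halved. TGI marks complete inhibition of growth.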

How the values were obtained:
Assay in all cases: DTP human tumour cell line panel, 48 h
[1] = test system: KM12 colon
[2] = test system: DMS 114 small cell lung
[3] = test system: UO-31 renal
[4] = test system: CCRF-CEM leukemia
[5] = test system: NCI-H460 lung
[6] = test system: HT29 colon
[7] = test system: UACC-257 melanoma
[8] = test system: DLD-1 colon
[9] = test system: OVCAR-8 ovarian
[10] = test system: A498 renal

| Structure (SMILES) | TGI [1] [µM] | TGI [2] | TGI [3] [µM] | TGI [4] [µM] | TGI [5] | TGI [6] [µM] | TGI [7] | TGI [8] | TGI [9] | TGI [10] [µM] | GI50 [1] [µM] | GI50 [3] [µM] | GI50 [10] [µM] | GI50 [2] [µM] | GI50 [4] [µM] | GI50 [6] [µM] | GI50 [7] [µM] | GI50 [8] [µM] | GI50 [9] [µM] | GI50 [5] [µM] |
| --- | --- | --- | --- | --- | --- | --- | --- | --- | --- | --- | --- | --- | --- | --- | --- | --- | --- | --- | --- | --- |
| O=C(NC1CCCC1=O)c1ccccc1 (stereo not drawn) | > 100 | > 100 µM | > 100 | > 100 | > 100 µM | > 100 | > 100 µM | > 100 µM | > 100 µM | > 100 |  |  |  |  |  |  |  |  |  |  |
| C/C1=C\[C@@H](O)C(=O)/C=C/C=C\c2csc(n2)[C@@H](C)NC(=O)C[C@@]2(CC1)S(=O)SC(=O)[C@]2(C)O (stereo partly drawn) |  | 0.169 µM and 0.022 µM | 0.0889 | > 100 | 0.27 µM and 0.327 µM |  | 0.115 µM and 0.0222 µM | 0.213 µM and 0.0233 µM | 0.0624 µM and 0.0152 µM | 0.0272 |  |  |  |  |  |  |  |  |  |  |
| C=C1CCC2[C@@H](CCC3[C@]2(C)CCC[C@]3(C)C(=O)OC)[C@@H]1CC=O (stereo partly drawn) | > 100 | 53.2 µM | > 100 | 64.2 | 41.3 µM | 81 | 68.9 µM | > 100 µM | 49.2 µM | > 100 | 39.3 | 31.3 | 87.8 |  |  |  |  |  |  |  |
| Fc1cccc(C2SCc3nc4ccccc4n32)c1F (stereo not drawn) | > 100 | > 100 µM | > 100 | > 100 | > 100 µM | > 100 | > 100 µM | > 100 µM | > 100 µM | > 100 |  |  |  |  |  |  |  |  |  |  |
| CN(C)c1ccc(/C=C2\C=Cc3ccccc32)cc1 | > 100 | 89.6 µM | > 100 | > 100 | > 100 µM | > 100 |  | > 100 µM | > 100 µM | > 100 |  |  |  |  |  |  |  |  |  |  |
| COc1cc2c(cc1OC)C1(c3ccc(Cl)cc3)ON=C(c3ccccc3)N1CS2 (stereo not drawn) | > 100 | > 100 µM | > 100 | > 100 | > 100 µM | > 100 | > 100 µM | > 100 µM |  | > 100 |  |  |  |  |  |  |  |  |  |  |
| COc1ccc(C=O)c(NC(=O)C(C)C)c1 | > 10 | 88.7 µM | 82.6 | > 10 | > 100 µM | > 100 | > 100 µM |  | > 100 µM | > 100 |  |  |  |  |  |  |  |  |  |  |
| COc1cc2nc(NCCCCCNC(=O)c3ccco3)nc(N)c2cc1OC | 62.4 | 40.6 µM | > 100 | 88.2 | > 100 µM | > 100 | 38.1 µM |  | > 100 µM | > 100 |  |  |  |  |  |  |  |  |  |  |
| CCO/C=C1\N=C(c2ccccc2Br)OC1=O |  | > 100 µM | > 100 | > 100 | > 100 µM | > 100 | > 100 µM | > 100 µM | > 100 µM | > 100 |  |  |  |  |  |  |  |  |  |  |
| N#Cc1ccc(N=Cc2c([O-])ccc3ccccc23)cc1.[C-]#[O+].[C-]#[O+].[Ir] | 30.2 | 3.66 µM | 26.1 | 7.1 |  | 42.3 | 29 µM | 4.09 µM | 28 µM | 37.5 | 16.6 | 13.2 | 22.5 | 1.69 | 1.67 | 17.6 | 10.6 | 1.96 | 6.03 |  |
| CCOC1=C2N=C(Cc3ccccc3F)N=C2C(=O)c2ccccc21 | > 100 | > 100 µM | > 100 | > 100 | > 100 µM | > 100 | > 100 µM | > 100 µM | > 100 µM |  |  |  |  |  |  |  |  |  |  |  |
| O=C(Cc1ccccc1)NN1C(=O)C(Cl)C1c1ccccc1O (stereo not drawn) |  | 46.5 µM | 36.8 | > 100 | 38.2 µM | > 100 | 71.5 µM | > 100 µM | > 100 µM |  |  |  |  |  |  |  |  |  |  |  |
| COc1ccc2cc(-c3c(-c4ccncc4)nc(-c4ccc(S(C)=O)cc4)n3C)ccc2c1 (stereo not drawn) | > 25 |  | > 25 | > 25 | > 25 µM | > 25 | > 25 µM |  | > 25 µM | > 25 | > 24.1 | 6.42 | > 7.37 |  | > 21.6 | 9.06 | > 25 |  | 17.9 | 24.8 |
| COc1cc(-c2cc(-c3cc([N+](=O)[O-])c(/C=N/NC(=O)c4ccncc4)o3)ccc2OC)ccc1C |  |  |  |  |  | > 100 | > 100 µM | > 100 µM |  | > 100 |  |  |  |  |  |  |  |  |  |  |
| O=C(Oc1cccnc1)c1ccsc1Nc1ccnc(C(F)(F)F)c1 | 10.3 |  | > 100 | > 100 | > 100 µM | 6.34 | 23.4 µM |  | > 100 µM | 76.2 | 3.38 | 20.8 | 31.1 |  | 4.19 | 2.39 | 10.5 |  | 4.14 | 17.7 |
| Nc1ccccc1SCc1csc(-c2ccc(Cl)cc2)n1 | 47.4 |  | 46.6 | 67.1 | > 77.2 µM | 46.2 | > 77.7 µM |  | > 100 µM | 55.9 |  |  |  |  |  |  |  |  |  |  |
| O=C1NC(=O)C(c2cccc(Cl)c2)=C1Nc1ccc(O)c(Cl)c1 | > 25 |  | > 25 | > 25 | > 25 µM | > 25 | > 25 µM |  | > 25 µM | > 25 | 10.5 | 7.93 | 11.1 |  | 11 | 10 | > 25 |  | 14 | 8.91 |
| Cc1ccc2nc(NC(=O)/C(Cc3nc4ccc(Cl)cc4[nH]c3=O)=N\NC(C)(C)C)sc2c1 | > 100 |  | > 100 | > 100 | > 100 µM | > 100 | > 100 µM |  | > 100 µM | > 100 |  |  |  |  |  |  |  |  |  |  |
| O=C(Nc1cccc(Nc2ncc(Br)c(NCCc3cnc[nH]3)n2)c1)N1CCCC1 | 11.5 |  | 45.8 | 29 | 15 µM | 24.2 | 37.5 µM |  | 24.8 µM | 16.6 | 0.869 | 13.4 | 4.31 |  | 0.58 | 3.85 | 12 |  | 8.44 | 3.68 |
| CSC(=S)N/N=C(\C)c1cccc(C)n1 | 42.6 |  | 13.2 | 0.102 | 9.79 µM | > 47.3 | 21.9 µM |  | 28.1 µM | 10.5 |  |  |  |  |  |  |  |  |  |  |
